Holding throughout (test): Kinase selectivity, DiscoverX scanMAX Kinase assay panel (% control)
Common to all, as to type: binding

In test [1] the target is T1, kinases of the scanMAX Kinase assay panel (Homo sapiens, UniProt P00533, G719C).
T1 construct: purchased DiscoverX Co. (contract measurement) scanMAX Kinase assay panel
The conditions noted are these: EGFR(G719C); 1 uM. The procedure, abridged:
(§1)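 Percent of control computed as (compound − positive control)/(negative control − positive control) × 100, DMSO defining 100% and positive control 0%. Each panel kinase exposed to 1 uM compound; values under 35% taken to mean the compound acts on that kinase.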

In test [2] the target is T2, kinases of the scanMAX Kinase assay panel (Homo sapiens, UniProt Q9BRS2).
T2 construct: purchased DiscoverX Co. (contract measurement) scanMAX Kinase assay panel
T2 sequence (Q9BRS2 1-568): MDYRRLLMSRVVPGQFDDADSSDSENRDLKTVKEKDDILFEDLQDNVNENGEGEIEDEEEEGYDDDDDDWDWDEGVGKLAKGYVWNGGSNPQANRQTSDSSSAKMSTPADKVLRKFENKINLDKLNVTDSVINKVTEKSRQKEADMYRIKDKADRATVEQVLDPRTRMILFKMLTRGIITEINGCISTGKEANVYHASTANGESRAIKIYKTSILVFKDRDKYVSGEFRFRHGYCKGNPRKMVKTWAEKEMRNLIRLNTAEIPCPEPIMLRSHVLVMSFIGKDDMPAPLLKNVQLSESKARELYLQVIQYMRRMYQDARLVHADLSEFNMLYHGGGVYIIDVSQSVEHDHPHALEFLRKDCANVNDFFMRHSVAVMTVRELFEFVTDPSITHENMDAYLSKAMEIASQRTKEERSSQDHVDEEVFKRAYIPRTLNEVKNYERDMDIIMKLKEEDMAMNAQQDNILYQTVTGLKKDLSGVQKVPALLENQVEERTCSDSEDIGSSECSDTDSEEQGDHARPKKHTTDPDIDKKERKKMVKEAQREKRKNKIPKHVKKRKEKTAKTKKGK
Conditions: kinase RIOK1; 1 uM in DMSO. In a few lines: as §1

The target in test [3] is T3, kinases of the scanMAX Kinase assay panel (Homo sapiens, UniProt Q9Y6E0).
T3 construct: purchased DiscoverX Co. (contract measurement) scanMAX Kinase assay panel
Conditions: MST3; 1 uM. The procedure, abridged: as §1

For test [4], the target named is T4, kinases of the scanMAX Kinase assay panel (Homo sapiens, UniProt Q00532).
T4 construct: purchased DiscoverX Co. (contract measurement) scanMAX Kinase assay panel
The conditions noted are these: CDKL1; 1 uM. In a few lines:
as §1

Test [5] addresses T5, kinases of the scanMAX Kinase assay panel (Homo sapiens, UniProt Q8TD08).
T5 construct: purchased DiscoverX Co. (contract measurement) scanMAX Kinase assay panel
T5 sequence (Q8TD08 1-544): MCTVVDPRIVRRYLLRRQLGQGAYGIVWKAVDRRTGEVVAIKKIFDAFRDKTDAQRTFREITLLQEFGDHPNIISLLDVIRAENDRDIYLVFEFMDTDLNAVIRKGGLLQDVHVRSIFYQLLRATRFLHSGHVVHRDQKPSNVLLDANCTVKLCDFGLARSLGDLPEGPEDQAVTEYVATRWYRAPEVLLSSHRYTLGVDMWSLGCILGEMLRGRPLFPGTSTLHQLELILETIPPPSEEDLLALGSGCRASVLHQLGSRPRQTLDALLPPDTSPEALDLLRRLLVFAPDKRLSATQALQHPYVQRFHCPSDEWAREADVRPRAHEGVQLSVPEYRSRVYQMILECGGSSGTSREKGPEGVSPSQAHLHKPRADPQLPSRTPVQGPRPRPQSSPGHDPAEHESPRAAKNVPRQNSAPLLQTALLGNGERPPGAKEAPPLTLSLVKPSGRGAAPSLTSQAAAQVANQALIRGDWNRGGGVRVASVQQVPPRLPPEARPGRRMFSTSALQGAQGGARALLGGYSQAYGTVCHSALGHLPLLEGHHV
The conditions noted are these: ERK8; 1 uM. In a few lines:
as §1

Test [6] concerns the target T6, kinases of the scanMAX Kinase assay panel (Homo sapiens, UniProt Q14680).
T6 construct: purchased DiscoverX Co. (contract measurement) scanMAX Kinase assay panel
Conditions: MELK; 1 uM. In a few lines:
as §1

For test [7], the target named is T7, kinases of the scanMAX Kinase assay panel (Homo sapiens, UniProt P42345).
T7 construct: purchased DiscoverX Co. (contract measurement) scanMAX Kinase assay panel
Conditions: MTOR; 1 uM. In a few lines:
as §1

Test [8] addresses T8, kinases of the scanMAX Kinase assay panel (Homo sapiens, UniProt P68400).
T8 construct: purchased DiscoverX Co. (contract measurement) scanMAX Kinase assay panel
Conditions: CSNK2A1; 1 uM. The procedure, abridged: as §1

For test [9], the target named is T9, kinases of the scanMAX Kinase assay panel (Homo sapiens, UniProt P10721, V559D/V654A).
T9 construct: purchased DiscoverX Co. (contract measurement) scanMAX Kinase assay panel
Conditions: KIT(V559D, V654A); 1 uM. The procedure, abridged: as §1

Test [10] addresses T10, kinases of the scanMAX Kinase assay panel (Homo sapiens, UniProt P36897).
T10 construct: purchased DiscoverX Co. (contract measurement) scanMAX Kinase assay panel
T10 sequence (P36897 34-503): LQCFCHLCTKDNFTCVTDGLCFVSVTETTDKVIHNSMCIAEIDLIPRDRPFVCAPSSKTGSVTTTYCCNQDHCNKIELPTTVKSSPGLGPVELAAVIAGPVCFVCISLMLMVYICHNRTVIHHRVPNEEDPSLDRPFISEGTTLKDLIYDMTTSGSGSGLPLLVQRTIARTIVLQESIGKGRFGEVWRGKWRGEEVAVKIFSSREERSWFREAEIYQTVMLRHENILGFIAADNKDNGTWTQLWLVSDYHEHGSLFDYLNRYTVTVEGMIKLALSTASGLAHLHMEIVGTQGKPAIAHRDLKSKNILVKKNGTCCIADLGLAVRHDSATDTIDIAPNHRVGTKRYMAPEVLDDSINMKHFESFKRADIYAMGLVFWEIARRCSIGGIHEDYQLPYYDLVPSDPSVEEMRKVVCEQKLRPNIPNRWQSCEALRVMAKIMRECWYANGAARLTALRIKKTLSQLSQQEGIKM
The conditions noted are these: kinase TGFBR1; 1 uM in DMSO. In a few lines: as §1

Test [11] has as its target T11, kinases of the scanMAX Kinase assay panel (Homo sapiens, UniProt P19784).
T11 construct: purchased DiscoverX Co. (contract measurement) scanMAX Kinase assay panel
Conditions: CSNK2A2; 1 uM. In a few lines: as §1

Test [12] deals with T12, kinases of the scanMAX Kinase assay panel (Homo sapiens, UniProt Q16513).
T12 construct: purchased DiscoverX Co. (contract measurement) scanMAX Kinase assay panel
Conditions: PKN2; 1 uM. The procedure, abridged:
as §1

The target in test [13] is T13, kinases of the scanMAX Kinase assay panel (Homo sapiens, UniProt P07949, M918T).
T13 construct: purchased DiscoverX Co. (contract measurement) scanMAX Kinase assay panel
The conditions noted are these: kinase RET(M918T); 1 uM in DMSO. The procedure, abridged:
as §1

The structures appear in SMILES notation.

T13 sequence (P07949 29-1114 M918T): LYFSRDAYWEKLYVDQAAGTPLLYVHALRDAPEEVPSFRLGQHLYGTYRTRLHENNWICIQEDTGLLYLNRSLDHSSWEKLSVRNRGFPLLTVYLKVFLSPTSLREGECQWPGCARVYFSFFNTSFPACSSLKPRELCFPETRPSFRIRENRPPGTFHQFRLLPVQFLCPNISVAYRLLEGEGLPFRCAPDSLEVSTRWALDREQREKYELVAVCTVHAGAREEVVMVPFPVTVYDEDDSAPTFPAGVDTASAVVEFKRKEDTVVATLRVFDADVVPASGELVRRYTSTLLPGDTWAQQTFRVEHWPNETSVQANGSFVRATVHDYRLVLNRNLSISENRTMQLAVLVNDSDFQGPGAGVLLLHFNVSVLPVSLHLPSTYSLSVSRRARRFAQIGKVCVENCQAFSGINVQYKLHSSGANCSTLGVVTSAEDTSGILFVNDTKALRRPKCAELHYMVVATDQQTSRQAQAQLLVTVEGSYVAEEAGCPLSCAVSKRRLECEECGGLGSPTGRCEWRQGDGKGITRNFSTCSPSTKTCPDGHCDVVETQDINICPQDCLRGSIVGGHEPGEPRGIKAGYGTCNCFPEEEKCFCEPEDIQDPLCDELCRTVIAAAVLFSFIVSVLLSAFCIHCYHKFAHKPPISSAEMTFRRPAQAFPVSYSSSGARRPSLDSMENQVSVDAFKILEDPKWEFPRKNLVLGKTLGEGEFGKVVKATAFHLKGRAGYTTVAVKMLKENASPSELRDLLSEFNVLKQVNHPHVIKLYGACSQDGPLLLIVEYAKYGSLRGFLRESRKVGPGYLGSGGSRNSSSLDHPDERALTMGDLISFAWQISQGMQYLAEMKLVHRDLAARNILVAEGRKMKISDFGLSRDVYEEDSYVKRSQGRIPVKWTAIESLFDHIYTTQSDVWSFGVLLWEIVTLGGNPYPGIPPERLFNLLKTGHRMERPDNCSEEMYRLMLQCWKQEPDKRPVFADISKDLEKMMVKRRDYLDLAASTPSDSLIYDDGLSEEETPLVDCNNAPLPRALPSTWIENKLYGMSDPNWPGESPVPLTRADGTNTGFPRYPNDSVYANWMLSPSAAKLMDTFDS
T1 sequence (P00533 25-1210 G719C): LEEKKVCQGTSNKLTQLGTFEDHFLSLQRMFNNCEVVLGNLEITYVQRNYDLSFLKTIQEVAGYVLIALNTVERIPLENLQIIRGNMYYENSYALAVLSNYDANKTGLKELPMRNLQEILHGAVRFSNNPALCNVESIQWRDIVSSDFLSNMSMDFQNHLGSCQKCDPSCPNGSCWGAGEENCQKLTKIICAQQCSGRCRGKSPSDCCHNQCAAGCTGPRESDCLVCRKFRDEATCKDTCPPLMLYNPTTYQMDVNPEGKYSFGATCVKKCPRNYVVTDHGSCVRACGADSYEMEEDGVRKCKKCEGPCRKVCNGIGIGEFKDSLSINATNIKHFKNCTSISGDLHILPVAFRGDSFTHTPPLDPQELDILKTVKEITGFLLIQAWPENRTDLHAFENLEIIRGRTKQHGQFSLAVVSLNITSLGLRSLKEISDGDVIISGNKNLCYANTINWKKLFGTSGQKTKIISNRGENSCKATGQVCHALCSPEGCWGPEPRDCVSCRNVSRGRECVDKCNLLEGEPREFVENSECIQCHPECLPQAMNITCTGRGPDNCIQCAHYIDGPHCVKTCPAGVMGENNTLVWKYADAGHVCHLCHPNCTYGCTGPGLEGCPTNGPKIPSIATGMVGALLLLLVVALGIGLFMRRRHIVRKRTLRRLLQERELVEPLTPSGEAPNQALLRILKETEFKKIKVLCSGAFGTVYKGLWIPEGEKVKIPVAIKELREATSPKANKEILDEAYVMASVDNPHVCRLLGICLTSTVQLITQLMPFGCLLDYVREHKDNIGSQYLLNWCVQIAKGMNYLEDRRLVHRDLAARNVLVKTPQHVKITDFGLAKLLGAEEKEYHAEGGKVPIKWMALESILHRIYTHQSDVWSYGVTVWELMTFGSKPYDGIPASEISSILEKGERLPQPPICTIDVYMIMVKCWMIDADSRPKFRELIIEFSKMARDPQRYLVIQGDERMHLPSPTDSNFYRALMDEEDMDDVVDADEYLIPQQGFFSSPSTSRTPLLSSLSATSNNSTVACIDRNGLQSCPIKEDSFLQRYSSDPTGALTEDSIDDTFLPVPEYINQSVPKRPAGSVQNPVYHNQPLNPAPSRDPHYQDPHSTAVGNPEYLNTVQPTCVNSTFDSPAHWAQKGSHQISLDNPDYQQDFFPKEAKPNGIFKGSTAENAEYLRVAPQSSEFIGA
T8 sequence (P68400 whole entry): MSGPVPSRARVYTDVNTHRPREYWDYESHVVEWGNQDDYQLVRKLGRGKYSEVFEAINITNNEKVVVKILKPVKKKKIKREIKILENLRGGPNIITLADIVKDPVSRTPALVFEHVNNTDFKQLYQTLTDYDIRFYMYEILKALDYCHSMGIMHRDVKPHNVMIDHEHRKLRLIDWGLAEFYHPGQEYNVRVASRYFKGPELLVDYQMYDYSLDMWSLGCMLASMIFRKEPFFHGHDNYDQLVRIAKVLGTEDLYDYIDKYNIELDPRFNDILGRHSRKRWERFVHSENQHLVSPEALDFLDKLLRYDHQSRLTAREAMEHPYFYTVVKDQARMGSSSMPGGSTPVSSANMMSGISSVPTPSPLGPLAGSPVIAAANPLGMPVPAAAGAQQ
T9 sequence (P10721 26-976 V559D/V654A): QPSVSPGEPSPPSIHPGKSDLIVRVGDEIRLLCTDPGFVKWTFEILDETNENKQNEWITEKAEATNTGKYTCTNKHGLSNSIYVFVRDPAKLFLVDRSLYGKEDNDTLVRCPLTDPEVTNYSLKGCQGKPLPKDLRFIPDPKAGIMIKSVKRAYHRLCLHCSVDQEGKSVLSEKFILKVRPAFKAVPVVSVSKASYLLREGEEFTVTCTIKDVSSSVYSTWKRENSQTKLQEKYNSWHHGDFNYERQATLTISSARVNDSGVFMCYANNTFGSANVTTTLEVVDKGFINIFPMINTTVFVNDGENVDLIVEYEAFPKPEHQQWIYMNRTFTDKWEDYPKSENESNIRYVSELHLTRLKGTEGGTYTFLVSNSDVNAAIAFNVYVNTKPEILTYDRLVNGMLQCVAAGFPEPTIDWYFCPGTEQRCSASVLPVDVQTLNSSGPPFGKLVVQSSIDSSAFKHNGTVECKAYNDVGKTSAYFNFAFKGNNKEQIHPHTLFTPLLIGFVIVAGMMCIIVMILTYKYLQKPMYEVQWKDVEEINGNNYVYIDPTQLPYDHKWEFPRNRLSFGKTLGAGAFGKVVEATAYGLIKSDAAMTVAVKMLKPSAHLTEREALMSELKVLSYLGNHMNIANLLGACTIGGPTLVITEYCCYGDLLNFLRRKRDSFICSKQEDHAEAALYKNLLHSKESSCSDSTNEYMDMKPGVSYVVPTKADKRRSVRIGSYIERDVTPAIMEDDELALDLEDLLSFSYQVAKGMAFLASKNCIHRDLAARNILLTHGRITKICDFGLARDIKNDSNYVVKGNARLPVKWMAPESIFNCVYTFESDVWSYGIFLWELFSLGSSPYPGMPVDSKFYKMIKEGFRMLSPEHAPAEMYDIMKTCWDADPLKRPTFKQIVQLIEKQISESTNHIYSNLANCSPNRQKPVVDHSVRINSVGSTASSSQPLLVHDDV
T11 sequence (P19784 whole entry): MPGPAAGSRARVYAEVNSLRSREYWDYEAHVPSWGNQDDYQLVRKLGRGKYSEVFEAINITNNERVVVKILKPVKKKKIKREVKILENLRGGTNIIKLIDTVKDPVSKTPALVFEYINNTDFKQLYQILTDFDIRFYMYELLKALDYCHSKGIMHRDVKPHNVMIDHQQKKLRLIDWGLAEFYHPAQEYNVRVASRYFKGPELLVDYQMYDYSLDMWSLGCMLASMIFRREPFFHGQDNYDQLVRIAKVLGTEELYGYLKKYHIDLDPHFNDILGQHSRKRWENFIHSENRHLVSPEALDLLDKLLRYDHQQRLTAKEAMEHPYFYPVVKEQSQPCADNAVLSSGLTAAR
T12 sequence (Q16513 whole entry): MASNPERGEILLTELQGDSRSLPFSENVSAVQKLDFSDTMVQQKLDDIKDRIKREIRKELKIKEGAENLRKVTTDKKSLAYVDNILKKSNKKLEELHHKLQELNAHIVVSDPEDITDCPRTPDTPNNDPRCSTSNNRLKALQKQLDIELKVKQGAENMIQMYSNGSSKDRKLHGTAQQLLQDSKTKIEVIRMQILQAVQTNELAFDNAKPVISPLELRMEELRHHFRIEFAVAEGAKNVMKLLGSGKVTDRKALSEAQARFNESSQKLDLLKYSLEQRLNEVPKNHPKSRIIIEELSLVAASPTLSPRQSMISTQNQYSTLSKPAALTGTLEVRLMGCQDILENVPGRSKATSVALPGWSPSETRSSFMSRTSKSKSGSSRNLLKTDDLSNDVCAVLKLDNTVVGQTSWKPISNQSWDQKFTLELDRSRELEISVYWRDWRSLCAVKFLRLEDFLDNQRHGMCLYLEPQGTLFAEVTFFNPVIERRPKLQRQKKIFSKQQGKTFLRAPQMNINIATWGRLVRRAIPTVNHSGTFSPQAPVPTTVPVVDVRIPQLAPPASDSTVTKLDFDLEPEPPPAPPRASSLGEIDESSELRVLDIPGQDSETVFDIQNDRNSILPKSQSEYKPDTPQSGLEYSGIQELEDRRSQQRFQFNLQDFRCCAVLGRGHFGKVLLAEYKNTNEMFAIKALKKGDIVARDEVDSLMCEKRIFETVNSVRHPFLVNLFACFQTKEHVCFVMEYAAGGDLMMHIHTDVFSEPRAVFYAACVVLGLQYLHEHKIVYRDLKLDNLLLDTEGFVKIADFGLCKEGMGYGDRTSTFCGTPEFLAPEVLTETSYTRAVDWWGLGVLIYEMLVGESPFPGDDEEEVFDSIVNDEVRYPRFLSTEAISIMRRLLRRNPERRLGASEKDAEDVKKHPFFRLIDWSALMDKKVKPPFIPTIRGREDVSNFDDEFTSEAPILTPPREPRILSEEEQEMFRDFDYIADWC

For `CNc1nc(Nc2ccc(C(=O)N3CCOCC3)cc2OC)nc2[nH]cc(C#N)c12` [Example 1, 2-((2-methoxy-4-(morpholine-4-carbonyl)phenyl)amino)-4-(methylamino)-7H-pyrrolo[2,3-d]pyrimidine-5-carbonitrile], the remaining binding at 1 µM in test [1] was 82%; in test [2], 100%; in [3], 86%; in test [4], 89%; in [5], 100%; in [6], 78%. Moreover, the remaining binding at 1 µM came to 100% in test [7]; 59% in [8]; 76% in test [9]; 5.1% in test [10]; 76% in [11]; 53% in test [12]. The remaining binding at 1 µM in test [13] was determined as 94%.

For `CC1(Nc2nc(Nc3cnn([C@H]4CCN(C5COC5)C[C@@H]4F)c3Cl)nc3[nH]cc(C#N)c23)CC1` [Example 52, 2-((5-chloro-1-((3S,4S)-3-fluoro-1-(oxetane-3-yl)piperidine-4-yl)-1H-pyrazole-4-yl)amino)((1-methylcyclopropyl)amino)-7H-pyrrolo[2,3-d]pyrimidine-5-carbonitrile], the remaining binding at 1 µM was 71% in [1]; 0.7% in [2]; 25% in test [3]; 46% in [4]; 62% in test [5]; 6.3% in test [6]. The remaining binding at 1 µM came to 66% in test [7]; 24% in test [8]; 0.9% in [9]; 91% in test [10]; 11% in test [11]; 78% in test [12]. The compound further had a remaining binding at 1 µM in test [13] of 0%.

As for `CCNc1nc(Nc2ccc(C(=O)N3CCC(N4CCOCC4)CC3)cc2OC)nc2[nH]cc(C(F)(F)F)c12` [Example 104, (4-((4-(ethylamino)-5-(trifluoromethyl)-7H-pyrrolo[2,3-d]pyrimidine-2-yl)amino)-3-methoxyphenyl)(4-morpholinopiperidine-1-yl)methanone], the remaining binding at 1 µM in [1] amounted to 96%; in [2], 100%; in [3] it was 84%; in test [4] it was 88%; in test [5], 100%; in [6], 79%. In addition, the remaining binding at 1 µM in test [7] amounted to 100%; in test [8], 73%; in [9], 94%; in test [10], 100%; in test [11], 95%; in test [12], 100%. In test [13], the remaining binding at 1 µM was 96%.

For the origin of these results see patent US11208412B2 (DAEGU-GYEONGBUK MEDICAL INNOVATION FOUNDATION, priority 2017, dated 2021).
